According to patent US20060276537A1, “Use of ladostigil for the treatment of multiple sclerosis” (priority 2005, published 2006):

Key:
Assay type in all cases: in vivo
[1] = test system: chronic progressive EAE induced by pMOG35-55 in C57BL/6 mice; test: MOG-induced chronic progressive EAE in C57BL/6 mice, clinical scoring; conditions: gavage once daily from day 0; for % Inhibition: vs control group mean score
Experimental: MOG (Myelin oligodendrocyte glycoprotein) is a member of the immunoglobulin superfamily expressed exclusively in CNS myelin. It is one of the most encephalitogenic proteins and is widely used to induce EAE in different rodent strains. In C57BL/6 mice, immunization with the MOG peptide pMOG35-55 in CFA induces chronic progressive EAE. Ladostigil was tested in this model in order to assess its ability to inhibit the disease.
EAE was induced by subcutaneous injection of encephalitogenic emulsion at a volume of 0.2 ml/mouse in the right flank. On the day of induction, pertussis toxin was injected intraperitoneally at a volume dose of 0.2 ml/mouse. The injection of the pertussis toxin was repeated after 48 hours. At the end of the experiment, 6-7 brains from control and the ladostigil groups were dissected and frozen at −70° C. for CHE (cholinesterase) determination and 6-7 brains were dissected and frozen for MAO (monoamine oxidase) determination. Before sacrifice, blood for ChE determination was taken on heparine, hemolysed 1/20 in 10 mM cold phosphate buffer pH=6.0 and stored at −70° C. until the assay.
90 female C57Bl/6 mice 8-10 weeks old obtained from Harlan animal breeding center were used in the study. Mice were allocated randomly into 6 groups:
Both compounds were administered by gavage once daily during the whole experiment (30 days) at a volume of 0.2 ml/mouse.
The mice were observed daily from the 10th day post-EAE induction and the EAE clinical signs were scored. The scores were recorded on observation cards according to the grades described in Table 5:
The number of sick animals (animals with a score of ≧1 at any point) in each group was summed.
The incidence of disease and the % activity were calculated as follows: [formula] [formula] [formula]
The maximal scores of all mice in each group were summed.
The mean maximal score and the % activity of the group were calculated as follows: [formula] [formula] [formula]
The individual scores (IMS) of each of the mice during the observation period were summed (score 6 will be counted forward).
The GMS of the group and its % activity were calculated as follows: [formula] [formula] [formula]
Their dates of onset were calculated as day of termination +1.

[2] = Body weight of the EAE mice (Table 7)
Description: These differences were statistically significant (p<0.000, Manova). According to the subsequent Post Hoc comparison (LSD), all the groups were different from the control (Table 7). […] On day 14, four days after the onset of the disease, sick mice lost an average of 2 g of weight. The average mean weight of GA-blocked mice was reduced by only 0.4 g. On day 23 the control group reached the lowest weight, 14.6 g.

MAO-A = biological target: T1, MAO-A (Mus musculus, UniProt Q64133); test: MAO assay (14C 5-HT substrate) in brains of treated EAE mice
T1 construct: in the brains of EAE mice; from tissue; host or cells: brain homogenate of ladostigil-treated EAE mice
T1 sequence (Q64133 1-526): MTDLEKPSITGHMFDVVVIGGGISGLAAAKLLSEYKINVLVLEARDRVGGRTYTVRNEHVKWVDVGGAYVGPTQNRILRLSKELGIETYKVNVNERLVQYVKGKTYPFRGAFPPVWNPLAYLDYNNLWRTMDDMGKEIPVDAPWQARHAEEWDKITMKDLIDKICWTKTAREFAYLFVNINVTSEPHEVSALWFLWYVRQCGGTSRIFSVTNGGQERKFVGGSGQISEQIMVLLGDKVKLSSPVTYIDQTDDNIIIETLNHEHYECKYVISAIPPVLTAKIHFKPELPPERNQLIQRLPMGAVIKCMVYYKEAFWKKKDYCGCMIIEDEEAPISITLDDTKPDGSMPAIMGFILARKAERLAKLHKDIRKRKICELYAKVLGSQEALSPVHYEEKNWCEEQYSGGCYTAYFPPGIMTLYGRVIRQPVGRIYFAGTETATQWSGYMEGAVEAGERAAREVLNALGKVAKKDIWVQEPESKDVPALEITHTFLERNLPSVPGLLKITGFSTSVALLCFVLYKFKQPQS
Experimental: From the mice of Example 2, the level of MAO (MAO-A and MAO-B) inhibition was determined using ^14C-Labeled 2-phenylethylamine and 5-hydroxytryptamine as substrates.
The MAO enzyme obtained from a homogenate of rat brain in 0.3M sucrose, which was centrifuged at 600 g for 15 minutes. The supernatant is diluted appropriately in 0.05M phosphate buffer, and pre-incubated with serial dilutions of test compounds for 20 minutes at 37° C. ^14C-Labeled substrates (2-phenylethylamine, hereinafter PEA; 5-hydroxytryptamine, hereinafter 5-HT) are then added, and the incubation continued for a further 20 minutes (PEA), or 30-45 minutes (5-HT). Substrate concentrations used are 50 μM (PEA) and 1 mM (5-HT). In the case of PEA, enzyme concentration is chosen so that not more than 10% of the substrate is metabolized during the course of the reaction. Deaminated products are extracted into toluene-ethyl acetate (1:1 v/v) containing 0.6% (w/v) 2,5-diphenyloxazole (ppo) prior to determination by liquid scintillation counting. Radioactivity in the eluate indicates the production of neutral and acidic metabolites formed as a result of MAO activity. Activity of MAO in the sample is expressed as a percentage of control activity in the absence of inhibitors after subtraction of appropriate blank values. The activity determined using PEA as substrate is referred to as MAO-B, and that determined using 5-HT as MAO-A. Concentrations of inhibitor producing 50% inhibition of substrate metabolism (IC50) are calculated from the inhibition curves.

Structure (SMILES): C#CCN[C@@H]1CCc2ccc(OC(=O)N(C)CC)cc21 [Ladostigil, R(+)-6-(N-methyl,N-ethyl-carbamoyloxy)-N′-propargyl-1-aminoindan]
- Group Mean Score ([1]; ladostigil salt 10.2 mg/kg): 2.75 ± 1.3
- Incidence ([1]; ladostigil salt 10.2 mg/kg): 15/15
- Mean Maximal Score ([1]; ladostigil salt 10.2 mg/kg): 4.33 ± 1.1
- Mean Onset ([1]; ladostigil salt 10.2 mg/kg): 12.0 ± 2.4 days
- Mortality ([1]; ladostigil salt 10.2 mg/kg): 2/15
- % Inhibition ([1]; ladostigil salt 10.2 mg/kg): 9.5%
- Group Mean Score ([1]; ladostigil salt 25.5 mg/kg): 3.08 ± 1.4
- Incidence ([1]; ladostigil salt 25.5 mg/kg): 15/15
- Mean Disease Duration ([1]; ladostigil salt 25.5 mg/kg): 35.3 ± 8.8 days
- Mean Maximal Score ([1]; ladostigil salt 25.5 mg/kg): 4.33 ± 1.0
- Mean Onset ([1]; ladostigil salt 25.5 mg/kg): 11.6 ± 2.1 days
- Mortality ([1]; ladostigil salt 25.5 mg/kg): 3/15
- % Inhibition ([1]; ladostigil salt 25.5 mg/kg): −1.3%
- Group Mean Score ([1]; ladostigil salt 51 mg/kg): 2.26 ± 1.1
- Incidence ([1]; ladostigil salt 51 mg/kg): 15/15
- Mean Disease Duration ([1]; ladostigil salt 51 mg/kg): 31.3 ± 13.2 days
- Mean Maximal Score ([1]; ladostigil salt 51 mg/kg): 3.83 ± 1.1
- Mean Onset ([1]; ladostigil salt 51 mg/kg): 11.4 ± 3.1 days
- Mortality ([1]; ladostigil salt 51 mg/kg): 1/15
- % Inhibition ([1]; ladostigil salt 51 mg/kg): 25.7%
- Incidence ([1]; ladostigil salt 70.1 mg/kg): 15/15
- Mean Maximal Score ([1]; ladostigil salt 70.1 mg/kg): 3.73 ± 1.0
- Mean Onset ([1]; ladostigil salt 70.1 mg/kg): 11.6 ± 2.3 days
- Mortality ([1]; ladostigil salt 70.1 mg/kg): 1/15
- % Inhibition ([1]; ladostigil salt 70.1 mg/kg): 33.2%
- Weight of EAE mice ([2]; day 2 after induction, ladostigil salt 10.2 mg/kg gavage daily): 18.1 ± 1.0 g
- Weight of EAE mice ([2]; day 2 after induction, ladostigil salt 25.5 mg/kg gavage daily): 18.2 ± 0.8 g
- Weight of EAE mice ([2]; day 2 after induction, ladostigil salt 51 mg/kg gavage daily): 18.2 ± 0.9 g
- Weight of EAE mice ([2]; day 2 after induction, ladostigil salt 70.1 mg/kg gavage daily): 18.5 ± 0.8 g
- Weight of EAE mice ([2]; day 14 after induction, ladostigil salt 10.2 mg/kg gavage daily): 16.0 ± 1.7 g
- Weight of EAE mice ([2]; day 14 after induction, ladostigil salt 25.5 mg/kg gavage daily): 15.9 ± 1.7 g
- Weight of EAE mice ([2]; day 14 after induction, ladostigil salt 51 mg/kg gavage daily): 15.6 ± 1.6 g
- Weight of EAE mice ([2]; day 14 after induction, ladostigil salt 70.1 mg/kg gavage daily): 15.9 ± 1.4 g
- Weight of EAE mice ([2]; day 30 after induction, ladostigil salt 10.2 mg/kg gavage daily): 17.6 ± 2.5 g
- Weight of EAE mice ([2]; day 30 after induction, ladostigil salt 25.5 mg/kg gavage daily): 17.8 ± 1.4 g
- Weight of EAE mice ([2]; day 42 after induction, ladostigil salt 10.2 mg/kg gavage daily): 17.5 ± 2.9 g
- Weight of EAE mice ([2]; day 42 after induction, ladostigil salt 25.5 mg/kg gavage daily): 17.6 ± 1.7 g
- Weight compared with positive control ([2]; highest dose of ladostigil, day 30): comparable with the positive control
- MAO-A inhibition (MAO-A; 51 and 70.1 mg/kg/day, brain): 55-60%
- MAO-A activity dpm (MAO-A; brain of EAE mice, 10.2 mg/kg): 3702 +/− 119 dpm
- MAO-A activity dpm (MAO-A; brain of EAE mice, 25.5 mg/kg): 2672 +/− 128 dpm
- MAO-A activity dpm (MAO-A; brain of EAE mice, 51 mg/kg): 1822 +/− 115 dpm
- MAO-A activity dpm (MAO-A; brain of EAE mice, 70.1 mg/kg): 1621 +/− 158 dpm
- inhibition at 10.2 mg/kg (MAO-A; mouse, brain of EAE mice, 10.2 mg/kg): 9%
- inhibition at 25.5 mg/kg (MAO-A; mouse, brain of EAE mice, 25.5 mg/kg): 34%
- inhibition at 51 mg/kg (MAO-A; mouse, brain of EAE mice, 51 mg/kg): 55%
- inhibition at 70.1 mg/kg (MAO-A; mouse, brain of EAE mice, 70.1 mg/kg): 60%
